According to patent EP4596561A1, “PHOSPHORUS-CONTAINING COMPOUND, PHARMACEUTICAL COMPOSITION AND USE THEREOF” (Suzhou Genhouse Bio Co., Ltd., priority 2022, dated 2024):
Like-named read-outs stand apart in the source and are kept apart here.

Experiments:
[1] = Pharmacokinetic test in mice (low dose); assay type: in vivo, Balb/c mice; details: mouse, plasma, mice; for AUC(0-t): read-out: AUClast; for half-life: read-out: T1/2 (converted)
Method: The compounds of the present disclosure were administered to Balb/c mice by single intravenous injection and oral gavage, and the plasma of the mice at each time point was collected. The concentration of the compounds to be tested in BALB/C plasma was detected using the LC-MS/MS analysis method, and pharmacokinetic analysis was performed.
The mixture was vortexed, shaken, and ultrasonicated. The remaining volume of 25% sulfobutylether-β-cyclodextrin (sterilized) was added to prepare the final concentration solution or suspension.
Intravenous injection formulations will be directly administered in animal experiments without filtration. The IV drug preparation vials were disinfected in an infrared sterilization cabinet one day in advance.
Intravenous injection: Administration was performed via the tail vein. After the needle was inserted, the syringe was slowly […].
Gavage: Gavage needle and syringe of an appropriate type were selected. The gavage needle was inserted from the root of the tongue into the esophagus until it reached near the cardia of the stomach, then the drug formulation was injected, and the gavage needle was withdrawn. When disposable plastic gavage needles were used, one needle was used for each group.
At each time point, 60 µL of whole blood was collected from the submandibular vein or tail vein (except for the IV group). The blood sample was added to a pre-cooled anticoagulant blood collection tube containing anticoagulant EDTA-K2 (1 µL, 15% EDTA-K2 solution), placed on wet ice, and centrifuged (3000 g, 4 °C, 10 min) within 1 h. The plasma was immediately collected after centrifugation, transferred to an EP tube, and stored at -90 °C to -60 °C.
Plasma concentration detection: A developed LC-MS/MS method was used to detect the compounds in plasma.
The plasma concentration-time data were analyzed using a non-compartmental model in the Phoenix® WinNonlin® (Version 8.2, Pharsight, Mountain View, CA).

NCI-H28 (NF2 wide-type) = test: Inhibition of cell proliferation (CellTiter-Lumi); assay type: cell-based; details: Homo sapiens, 72 h + another 72 h treatment
Method: (§1) NCI-H2052 (NF2 mutant), NCI-H226 (NF2 mutant), NCI-H2452 (NF2 wide-type), NCI-H28 (NF2 wide-type), and MSTO-211H (NF2 wide-type) cells were cultured in RPMI 1640 complete media.
(§2) The normally growing cells described above were digested with a trypsin cell-digesting solution, centrifuged, counted, and then plated in a 96-well plate at a density of 1000 cells per well. Administration was performed 24 h after the cell plating. Inhibitors at different concentration gradients were added at 10 µL per well, and three replicate wells were set for each concentration point. The starting concentration was 20 µM and diluted 8 times with a 4-fold gradient. A corresponding negative control group treated with 0.1% DMSO was also set up. After 72 h of drug treatment, the cell culture plate to be tested was taken out of the incubator. The culture medium in the 96-well plate was pipetted, and 190 µL of fresh RPMI 1640 complete medium was added. Another administration was performed, and the cells were cultured for another 72 h. The 96-well plate was taken out and allowed to equilibrate at room temperature for 10 min. […] After shaking for two minutes, the mixture was reacted at room temperature for 10 min. Then, 150 µL of liquid was pipetted from the transparent 96-well plate and transferred to a white 96-well plate for chemiluminescence reading. The background value was subtracted from the value for each well to calculate the cell survival rate. Survival rate (%) = […]. Sample is the chemiluminescence of the drug-treated group, and Vehicle is the […] of the DMSO control group. A sigmoidal dose-survival rate curve was plotted using a non-linear regression model in the GraphPad Prism 7.0 software, and the IC50 values or GI50 values were calculated.

[2] = test system: NCI-H2452 (NF2 wide-type); test: Inhibition of cell proliferation (CellTiter-Lumi); assay type: cell-based; details: Homo sapiens, 72 h + another 72 h treatment
Method: as §1, §2

[3] = test system: YAP-TEAD transcription complex; test: YAP-TEAD reporter gene assay (dual luciferase, stably transfected 293T cells); assay type: cell-based; details: Homo sapiens, HEK-293T; 293T reporter cells, 24 h of drug treatment; read-out: IC50
Method: YAP-TEAD reporter gene The YAP-TEAD reporter gene assay was performed as follows. Firstly, the 8xGTIIC promoter sequence ([…] GTACTGTTGGTAAA) was constructed into a pGL4.20(luc2-Puro) plasmid, and the TK promoter ([…]) unrelated to the hippo pathway was constructed into a pGL4.78(hRlucCP/Hygro) plasmid, thereby constructing stably transfected 293T cells that can stably and continuously express the transcriptional activity of the YAP-TEAD transcription complex. After selection and identification of individual clones, the clones were grown and maintained in a DMEM medium containing 10% fetal bovine serum, penicillin-streptomycin solution, 1 µg/mL puromycin, and 150 µg/mL hygromycin. To perform reporter gene assays with the compounds to be tested, the well-growing cells described above were plated in a 384-well plate at a cell density of 3000 cells per well, with 90 µL per well. The periphery was sealed with an appropriate amount of PBS to prevent evaporation of water from the peripheral wells. Administration was performed on the next day after the cell plating. The test compounds were added at different concentration gradients, and three replicate wells were set for each concentration point. The compound concentration started at 5 µM and was diluted seven times with a 5-fold gradient. A corresponding negative control group treated with DMSO was also set up. After 24 h of drug treatment, the detection reagents were prepared first. The Dual-Lumi™ Firefly luciferase detection reagent and Dual-Lumi™ Renilla luciferase detection buffer were dissolved and brought to room temperature. […]. According to the amount of 100 µL of Dual-Lumi™ Renilla luciferase detection working solution required for the detection of each sample, an appropriate amount of Dual-Lumi™ Renilla luciferase detection working solution was prepared. […]. The cell culture plate was taken out and allowed to equilibrate at room temperature for 10 min (usually no more than 30 min). Then, 100 µL of Dual-Lumi™ Firefly luciferase detection reagent was added to each well of a 96-well plate (25 µL per well for the 384-well plate), and the mixture was mixed well. The mixture was then incubated at room temperature (about 25 °C) for 10 min to stabilize the luminescent signal, and then chemiluminescence was detected using a multimode microplate reader with a chemiluminescence detection function. Subsequently, the detection of Renilla luciferase began. Firstly, 100 µL of Dual-Lumi™ Renilla luciferase detection working solution was added to each well of a […] (25 µL per well for the 384-well plate), and the mixture was mixed well. The mixture was then incubated at room temperature (about 25 °C) for 10 min to stabilize the luminescent signal. Finally, chemiluminescence was detected using a multimode microplate reader with a chemiluminescence detection function. The obtained data were analyzed using GraphPad Prism 7.0 software. A sigmoidal dose-survival rate curve was plotted using a non-linear regression model, and the IC50 values were calculated.

[4] = test system: MSTO-211H (NF2 wide-type); test: Inhibition of cell proliferation (CellTiter-Lumi); assay type: cell-based; details: Homo sapiens, 72 h + another 72 h treatment
Method: as §1
The normally growing cells described above were digested with a trypsin cell-digesting solution, centrifuged, counted, and then plated in a 96-well plate at a density of 1000 cells per well. Administration was performed 24 h after the cell plating. Inhibitors at different concentration gradients were added at 10 µL per well, and three replicate wells were set for each concentration point. The starting concentration was 20 µM and diluted 8 times with a 4-fold gradient. A corresponding negative control group treated with 0.1% DMSO was also set up. After 72 h of drug treatment, the cell culture plate to be tested was taken out of the incubator. The culture medium in the 96-well plate was pipetted, and 190 µL of fresh RPMI 1640 complete medium was added. Another administration was performed, and the cells were cultured for another 72 h. The 96-well plate was taken out and allowed to equilibrate at room temperature for 10 min. The medium in the 96-well plate was pipetted, and 200 µL of CellTiter-Lumi™ luminescent cell viability detection solution (mixed with a medium in a ratio of 1:1) was added. After shaking for two minutes, the mixture was reacted at room temperature for 10 min. Then, 150 µL of liquid was pipetted from the transparent 96-well plate and transferred to a white 96-well plate for chemiluminescence reading. The background value was subtracted from the value for each well to calculate the cell survival rate. Survival rate (%) = […]. Sample is the chemiluminescence of the drug-treated group, and Vehicle is the […] of the DMSO control group. A sigmoidal dose-survival rate curve was plotted using a non-linear regression model in the GraphPad Prism 7.0 software, and the IC50 values or GI50 values were calculated.

- MRT ([1]; IV 2 mg/kg): 6.4 h
- AUC(0-t) ([1]; IV 2 mg/kg): 9.23 µM·h
- clearance ([1]; IV 2 mg/kg, read-out: Cl (converted)): 8.33 mL/min/kg
- half-life ([1]; IV 2 mg/kg): 6.3 h
- MRT ([1]; PO 10 mg/kg): 5.3 h
- bioavailability ([1]; PO 10 mg/kg vs IV 2 mg/kg, read-out: F%): 163%
- AUC(0-t) ([1]; PO 10 mg/kg): 79 µM·h
- Cmax ([1]; PO 10 mg/kg, read-out: Cmax): 9.36 µM
- half-life ([1]; PO 10 mg/kg): 3.3 h
- IC50 (NCI-H28 (NF2 wide-type)): > 1250 nM
- IC50 [2]: > 5000 nM
- IC50 [3]: 123 nM
SMILES: CP(C)(=O)c1ccc2c(c1)c1ncccc1n2-c1ccc(C(F)(F)F)cc1 [Example 4]
- IC50 [4]: > 1250 nM
